How the values were obtained:
Format in all cases: cell-based
HCT116 cells = test: Effects on HCT116 colorectal cancer cell viability (cell titre blue, 72 hours); conditions: Homo sapiens, HCT-116, HCT116 cell line
HeLa cells = test: Arresting cells in mitosis (Mitotic Index, phosphorylated Histone H3 immunofluorescence); conditions: HeLa cell line, 24 hours; for EC50: Homo sapiens, Mitotic Index, read-out: EC50
Protocol: Assay to Measure the Effects of Compounds of the Invention on Arresting Cells in Mitosis
Inhibiting the ability of PLK1 to bind to its phosphopeptide binding partners through the PBD causes cells to arrest in mitosis. Experimentally, this is measured by assessing the number of cells which are in mitosis at a certain time after treatment with a PLK1-PBD inhibitor by immunofluorescent detection of phosphorylated Histone H3 (pH3), a marker which is only present in mitotic cells. PLK1-PBD inhibitors are expected to cause a dose-dependent increase in pH3-positive cells, which is reported as Mitotic Index (MI)—the percentage of cells which, at a given time, are positive for this mitotic mark. The following protocol has been used to measure MI: • 1. Plate HeLa cells at 10,000/well in 100 μL/well in clear flat-bottom 96-well plates and incubate overnight. • 2. Immediately prior to treatment, dilute compounds in medium in a 96-well round-bottom plate. Make up all compounds at 5 times final desired concentration on cells, and serially dilute 1:2 across the plate ensuring that there is 100 μL of each concentration (start with 200 μl of the top concentration on the left of the plate). […] Treat cells by adding 25 μL from the compound dilution plate to triplicate wells. • 4. Incubate cells with compound for 24 hours. • 5. After 24 hours, fixation and staining is carried out as follows: • 6. Dilute 37% formaldehyde in PBS to give a 12.95% solution by adding 3.5 mL formaldehyde to 6.5 mL of PBS. • 7. Add 50 μL of formaldehyde fixation solution directly to each well of cells (which already contain 125 μL medium). • 8. Incubate at room temp for 10 minutes. • 9. Remove fixative and add 100 μL/well PBS+0.1% Triton X-100 for 10 minutes. • 10. Aspirate and add 100 μL/well PBS+1% BSA. • 11. Aspirate and add 50 μL/well of primary antibody (anti-PH3 [1:2000]/anti-MPM2 [1:1000]) diluted in PBS+1% BSA. Incubate for 1 hour. • 12. Wash×2 with 100 μL/well PBS+1% BSA. • 13. Add 50 μL/well of secondary antibody plus Hoechst stain (anti-rabbit Alexafluor 488 [1:500]; anti-mouse Alexafluor 546 [1:500]+Hoechst 33342 [1:2500 final concentration=4 μg/mL])diluted in PBS+1% BSA. Incubate for 1 hour. • 14. Wash twice with 100 μL/well PBS+1% BSA. • 15. Aspirate and add 100 μL/well PBS. Plates can be stored at 4° C. in PBS for several weeks before scanning on the Cellomics Arrayscan. […] Scan on Cellomics using Target Activation Bioapplication. • 17. MI data emerging from the Cellomic Bioapplication can be used to plot MI versus compound concentration, and subsequently used to generate an EC50 value for each compound using an appropriate graphing/curve-fitting package such as GraphPad Prism.

wild-type HeLa cell line = test: Wild-type versus KRAS HeLa cell viability: wild-type KRAS transgene; conditions: Homo sapiens; HeLa cells expressing wild-type KRAS, 72 hours; read-out: WT GI50
Protocol: (§1) Assay to Measure the Effects of Compounds of the Invention on Wild-Type Versus KRAS HeLa Cell Viability
(§2) Identifying synthetic lethal interactions between targeted small molecule therapies and characterised oncogenic mutations is a goal of modern oncology drug discovery efforts. To this end, PLK1-PBD inhibitors were tested on HeLa cells engineered to inducibly express wild-type or oncogenic KrasG12V transgenes using the FLP-in/T-Rex system (Invitrogen). Cells were plated, and then treated with or without Doxycycline to induce transgene expression, and then treated with serially-diluted PBD inhibitors. After 72 hours of incubation, cell viability was assessed using the Cell Titre Blue reagent (Promega) and a BMG Pherastar plate reader. The effect of PBD inhibition on cell viability with either wild-type or oncogenic G12V KRAS was assessed using the graphing/curve-fitting packages in GraphPad Prism.

KRAS G12V HeLa cell line = test: Wild-type versus KRAS HeLa cell viability: oncogenic KrasG12V transgene; conditions: Homo sapiens; HeLa cells expressing KRAS G12V, 72 hours
Protocol: as §1, §2

[1] = test system: HCT116 cells (a mutant KRAS G-13D expressing cell line); test: Drug resistance studies in HCT116 cells; conditions: five times the half maximal growth inhibiting amount, twenty two days

Row | GI50 (HCT116 cells) [nM] | EC50 (HeLa cells) [nM] | GI50 (wild-type HeLa cell line) [nM] | GI50 (KRAS G12V HeLa cell line) [nM] | Structure (SMILES) | % mitotic cells (HeLa cells) [%] | formation of drug-resistant colonies [1]
1 | 390 | 740 | 240 | 80 | CNCCNC(=O)c1cccc(-c2ccc(-c3ccc(Br)cc3)n2-c2ccccc2C(F)(F)F)c1 [Example 23] | 79 | –
2 | 490 | 620 | 260 | 80 | CN(C)CCCNC(=O)c1cccc(-c2ccc(-c3ccc(Br)cc3)n2-c2ccccc2C(F)(F)F)c1 [Example 24] | 77 | –
3 | – | – | – | – | CC[C@@H]1C(=O)N(C)c2cnc(Nc3ccc(C(=O)NC4CCN(C)CC4)cc3OC)nc2N1C1CCCC1 [Example B12536, 4-[[(7R)-8-cyclopentyl-7-ethyl-5,6,7,8-tetrahydro-5-methyl-6-oxo-2-pteridinyl]amino]-3-methoxy-N-(1-methyl-4-piperidinyl)benzamide, reference compound] | – | drug-resistant colonies were formed
